Results on four compounds are retold here after BindingDB's records for patent US12440484 (Chong Kun Dang Pharmaceutical, 2025).

The target in one assay is Histone deacetylase 1 (Homo sapiens, UniProt Q13547). Nature of the assay: Identification of HDAC Enzyme Activity Inhibition (In Vitro). On the procedure: (§1) For a HDAC1 assay, samples were treated at a concentration of 100, 1000 and 10000 nM. For a HDAC6 assay, samples were treated at a concentration of 0.1, 1, 10, 100 and 1000 nM.
The target in a further assay is T1, Histone deacetylase 6 (Homo sapiens, UniProt Q9UBN7).
T1 sequence (Q9UBN7 whole entry): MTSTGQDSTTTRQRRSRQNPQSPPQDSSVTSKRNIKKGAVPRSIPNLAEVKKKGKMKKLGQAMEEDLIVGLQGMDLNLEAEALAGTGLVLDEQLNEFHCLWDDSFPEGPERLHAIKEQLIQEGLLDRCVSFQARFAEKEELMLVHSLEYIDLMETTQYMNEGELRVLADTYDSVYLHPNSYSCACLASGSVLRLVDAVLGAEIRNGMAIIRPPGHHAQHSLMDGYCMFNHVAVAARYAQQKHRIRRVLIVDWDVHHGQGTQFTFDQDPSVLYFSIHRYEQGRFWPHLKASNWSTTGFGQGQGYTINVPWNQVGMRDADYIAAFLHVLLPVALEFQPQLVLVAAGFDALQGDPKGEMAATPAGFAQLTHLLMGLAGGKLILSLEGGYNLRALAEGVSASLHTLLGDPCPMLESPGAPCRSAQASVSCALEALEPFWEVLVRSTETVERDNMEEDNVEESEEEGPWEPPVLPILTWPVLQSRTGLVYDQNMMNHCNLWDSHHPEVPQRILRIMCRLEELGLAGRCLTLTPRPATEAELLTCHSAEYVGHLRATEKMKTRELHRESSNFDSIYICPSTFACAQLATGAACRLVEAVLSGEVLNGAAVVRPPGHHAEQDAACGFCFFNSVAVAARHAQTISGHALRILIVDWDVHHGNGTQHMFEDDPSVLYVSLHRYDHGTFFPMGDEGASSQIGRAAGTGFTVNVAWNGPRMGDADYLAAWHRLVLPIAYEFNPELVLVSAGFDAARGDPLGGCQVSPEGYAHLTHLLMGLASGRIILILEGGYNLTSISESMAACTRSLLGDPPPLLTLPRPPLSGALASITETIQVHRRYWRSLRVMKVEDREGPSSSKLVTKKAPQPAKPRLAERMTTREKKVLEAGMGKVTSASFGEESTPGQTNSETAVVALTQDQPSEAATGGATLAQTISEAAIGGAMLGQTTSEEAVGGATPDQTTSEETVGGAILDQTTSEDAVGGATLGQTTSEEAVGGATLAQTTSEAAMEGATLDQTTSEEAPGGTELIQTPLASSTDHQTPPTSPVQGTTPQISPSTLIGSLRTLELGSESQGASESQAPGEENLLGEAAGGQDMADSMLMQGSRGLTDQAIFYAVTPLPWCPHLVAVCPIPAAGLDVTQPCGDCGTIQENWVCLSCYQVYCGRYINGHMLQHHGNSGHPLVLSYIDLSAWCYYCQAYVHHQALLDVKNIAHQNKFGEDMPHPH
Described as above. On the procedure: as §1

Usually IC50 stands for the midpoint of a concentration-inhibition curve. Read a low IC50 as greater potency in that assay.

Chain of Histone deacetylase 1 (Q13547 whole entry): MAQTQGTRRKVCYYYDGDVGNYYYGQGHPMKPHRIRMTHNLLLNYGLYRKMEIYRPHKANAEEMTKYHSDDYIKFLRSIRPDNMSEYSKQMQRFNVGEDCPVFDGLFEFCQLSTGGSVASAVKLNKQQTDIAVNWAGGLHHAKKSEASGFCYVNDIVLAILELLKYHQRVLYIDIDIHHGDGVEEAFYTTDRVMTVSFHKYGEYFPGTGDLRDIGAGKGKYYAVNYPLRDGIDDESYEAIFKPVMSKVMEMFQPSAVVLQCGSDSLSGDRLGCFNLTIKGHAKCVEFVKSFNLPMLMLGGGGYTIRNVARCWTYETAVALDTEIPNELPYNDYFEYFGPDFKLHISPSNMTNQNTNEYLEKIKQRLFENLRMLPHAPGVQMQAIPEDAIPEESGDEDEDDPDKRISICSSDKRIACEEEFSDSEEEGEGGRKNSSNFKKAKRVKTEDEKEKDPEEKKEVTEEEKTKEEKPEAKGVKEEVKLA

In the case of `O=c1c2ccccc2n(CCN2CCCCC2)c(=O)n1Cc1ccc(-c2nnc(C(F)F)o2)cc1F` [US12440484, Compound 10], the values for the half-maximal inhibitory concentration (IC50) against Histone deacetylase 1 and against Histone deacetylase 6 were greater than 10 µM and 455 nM, respectively.

Take `CC1(C)C(=O)N(Cc2ccc(-c3nnc(C(F)F)o3)cn2)C(=O)c2ccc(N3CCCCC3)cc21` [US12440484, Compound 27]: the half-maximal inhibitory concentration (IC50) at Histone deacetylase 1 is greater than 10 µM; against Histone deacetylase 6, 43 nM.

As for `CC1(C)C(=O)N(Cc2ccc(-c3nnc(C(F)F)o3)cn2)C(=O)c2ccc(N3CCN(CC(F)(F)F)CC3)cc21` [US12440484, Compound 141], the 50% inhibitory concentration (IC50) on Histone deacetylase 1 is greater than 10 µM; at Histone deacetylase 6 it was 52 nM.

For the compound `COCCN1CCC(c2ccc3c(c2)C(=O)N(Cc2ccc(-c4nnc(C(F)F)o4)cn2)C(=O)C3(C)C)CC1` [US12440484, Compound 151], the half-maximal inhibitory concentration (IC50) against Histone deacetylase 1 is greater than 10 µM; on Histone deacetylase 6, 33 nM.
